Laboratory results from the supplement of paper PMC10307832.

Assays:
Assay in all cases: relative viability (nuclei count vs DMSO), 5 days (fraction); higher = more cells survive
AZD8055 + Pemetrexed = compound: COc1ccc(-c2ccc3c(N4CCOC[C@@H]4C)nc(N4CCOC[C@@H]4C)nc3n2)cc1CO [AZD8055] + Nc1nc2[nH]cc(CCc3ccc(C(=O)N[C@@H](CCC(=O)O)C(=O)O)cc3)c2c(=O)[nH]1 [Pemetrexed] (partner 0.2 µM)
Method in brief: (§1)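 Lung cancer cell lines were seeded in 1536-well plates and dosed by pin tool the next day, with either a single drug or a fixed anchor-drug dose combined with five library-drug doses (not always all listed) spaced in √10 steps. Five days later, one step fixed the cells and stained their nuclei (final 0.05% Triton X-100, 1% formaldehyde, 1 ug/ml Hoechst), and nuclei were counted on 4× images. Relative viability is the nuclei count in treated wells divided by the count in vehicle wells, and each value is the median of duplicate plates.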

AZD8055 + OSI-027 = compound: COc1ccc(-c2ccc3c(N4CCOC[C@@H]4C)nc(N4CCOC[C@@H]4C)nc3n2)cc1CO [AZD8055] + COc1cccc2cc(-c3nc([C@H]4CC[C@H](C(=O)O)CC4)n4ncnc(N)c34)[nH]c12 [OSI-027] (partner 0.5 µM)
Method in brief: as §1

AZD8055 + Foretinib = compound: COc1ccc(-c2ccc3c(N4CCOC[C@@H]4C)nc(N4CCOC[C@@H]4C)nc3n2)cc1CO [AZD8055] + COc1cc2c(Oc3ccc(NC(=O)C4(C(=O)Nc5ccc(F)cc5)CC4)cc3F)ccnc2cc1OCCCN1CCOCC1 [Foretinib] (partner 0.25 µM)
Method in brief: as §1

AZD8055 + AZD7762 = compound: COc1ccc(-c2ccc3c(N4CCOC[C@@H]4C)nc(N4CCOC[C@@H]4C)nc3n2)cc1CO [AZD8055] + NC(=O)Nc1cc(-c2cccc(F)c2)sc1C(=O)N[C@H]1CCCNC1 [AZD7762] (partner 0.2 µM)
Method in brief: as §1

| Cell Line | relative viability (AZD8055 + Pemetrexed; first compound 0.01 µM) | relative viability (AZD8055 + Pemetrexed; first compound 0.03162 µM) | relative viability (AZD8055 + Pemetrexed; first compound 0.1 µM) | relative viability (AZD8055 + Pemetrexed; first compound 0.3162 µM) | relative viability (AZD8055 + Pemetrexed; first compound 1 µM) | relative viability (AZD8055 + OSI-027; first compound 0.01 µM) | relative viability (AZD8055 + OSI-027; first compound 0.03162 µM) | relative viability (AZD8055 + OSI-027; first compound 0.1 µM) | relative viability (AZD8055 + OSI-027; first compound 0.3162 µM) | relative viability (AZD8055 + OSI-027; first compound 1 µM) | relative viability (AZD8055 + Foretinib; first compound 0.01 µM) | relative viability (AZD8055 + Foretinib; first compound 0.03162 µM) | relative viability (AZD8055 + Foretinib; first compound 0.1 µM) | relative viability (AZD8055 + Foretinib; first compound 0.3162 µM) | relative viability (AZD8055 + Foretinib; first compound 1 µM) | relative viability (AZD8055 + AZD7762; first compound 0.01 µM) | relative viability (AZD8055 + AZD7762; first compound 0.03162 µM) | relative viability (AZD8055 + AZD7762; first compound 0.1 µM) | relative viability (AZD8055 + AZD7762; first compound 0.3162 µM) | relative viability (AZD8055 + AZD7762; first compound 1 µM) |
| --- | --- | --- | --- | --- | --- | --- | --- | --- | --- | --- | --- | --- | --- | --- | --- | --- | --- | --- | --- | --- |
| UMC-11 | 0.76 | 0.629 | 0.525 | 0.302 | 0.264 | 0.494 | 0.452 | 0.367 | 0.302 | 0.284 | 1 | 0.8 | 0.555 | 0.292 | 0.297 |  |  |  |  |  |
| NCI-H1650 | 0.403 | 0.463 | 0.389 | 0.39 | 0.29 | 0.678 | 0.776 | 0.484 | 0.435 | 0.39 | 0.998 | 1.02 | 0.886 | 0.778 | 0.449 |  |  |  |  |  |
| EBC-1 |  |  |  |  |  |  |  |  |  |  | 0.102 | 0.126 | 0.116 | 0.114 | 0.127 |  |  |  |  |  |
| SK-LU-1 | 1.09 | 0.874 | 0.69 | 0.444 | 0.371 | 0.354 | 0.372 | 0.337 | 0.289 | 0.242 | 0.784 | 0.627 | 0.427 | 0.258 | 0.212 |  |  |  |  |  |
| SK-MES-1 | 0.947 | 0.892 | 0.833 | 0.408 | 0.326 | 0.653 | 0.629 | 0.557 | 0.338 | 0.22 | 0.849 | 0.819 | 0.81 | 0.408 | 0.329 |  |  |  |  |  |
| NCI-H1792 | 0.764 | 0.343 | 0.193 | 0.108 | 0.108 | 0.799 | 0.674 | 0.574 | 0.431 | 0.26 |  |  |  |  |  | 0.589 | 0.291 | 0.21 | 0.0685 | 0.0707 |
| SW 1573 | 0.938 | 0.728 | 0.653 | 0.285 | 0.18 | 0.696 | 0.528 | 0.47 | 0.221 | 0.18 | 0.86 | 0.645 | 0.803 | 0.516 | 0.251 |  |  |  |  |  |
| A549 |  |  |  |  |  |  |  |  |  |  | 0.929 | 0.831 | 0.638 | 0.123 | 0.0603 |  |  |  |  |  |
| NCI-H1703 |  |  |  |  |  |  |  |  |  |  | 0.34 | 0.32 | 0.306 | 0.301 | 0.226 | 0.127 | 0.125 | 0.115 | 0.115 | 0.095 |
| NCI-H520 | 0.636 | 0.307 | 0.245 | 0.182 | 0.144 | 0.236 | 0.254 | 0.188 | 0.184 | 0.16 | 0.635 | 0.344 | 0.35 | 0.173 | 0.172 |  |  |  |  |  |
| NCI-H1563 | 0.735 | 0.577 | 0.602 | 0.563 | 0.471 | 0.776 | 0.731 | 0.681 | 0.629 | 0.599 | 0.913 | 0.723 | 0.725 | 0.635 | 0.645 |  |  |  |  |  |
| NCI-H2009 | 1.08 | 1.06 | 1.03 | 0.722 | 0.263 | 0.72 | 0.562 | 0.641 | 0.338 | 0.292 | 1.27 | 1.24 | 1.13 | 0.912 | 0.367 |  |  |  |  |  |
